The values below come from patent US10538555B2, “Macrocyclic inhibitors of the PD-1/PD-L1 and CD80(B7-1)/PD-L1 protein/protein interactions” (BRISTOL-MYERS SQUIBB COMPANY, priority 2014, dated 2020).

pIC50: −log10 of the molar value. Like-named read-outs stand apart in the source and are kept apart here. *1 amine or outer side, *2 acyl side, *3 side chain or, on linkers, in order; H or OH if unused. Where a SMILES comes first, the peptide text is derived from it. Bridges are numbered along the chain shown (N, C = ends). [ ]: non-standard residue; d: D form. ξ: configuration not given here. X7 = CCCC[C@@H](C(=O)C[C@@H](CO)C(=O)[*:2])N(C)[*:1]; Bta = N[C@@H](Cc1csc2ccccc12)C(=O)O; Hyp = O=C(O)[C@@H]1C[C@@H](O)CN1; NMeNle = CCCC[C@H](NC)C(=O)O; hSer = N[C@@H](CCO)C(=O)O; NMeA = CN[C@@H](C)C(=O)O; Orn = NCCC[C@H](N)C(=O)O; ξC = NC(CS)C(=O)O

For this test, the target named is T1, Human PD-L1/PD-1 (Homo sapiens, UniProt Q9NZQ7).
T1 construct: TVMV protease cleavage site (C); made in house; host or cells: HEK293T cells
The test can be described thus: HTRF Human PD-L1/PD-1 binding assay (PD-1-Ig/PD-L1-His). Conditions: PD-L1-His 10 nM, PD-1-Ig 20 nM. In a few lines: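 Soluble HEK293T-expressed proteins: hPD-L1-His 10 nM, hPD-1-Ig 20 nM final. Cpd + PD-L1 15 min, + PD-1 15 min, + Eu anti-Ig 1 nM/APC anti-His 20 nM 30 min. Buffer dPBS, 0.1% BSA, 0.05% Tween-20. TR-FRET 665/620.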
On the technique in general: In TR-FRET formats the signal depends on donor and acceptor labels being close together.

[1] abbreviates: class symbol, read-out: HTRF Human PD-L1/PD-1 Binding Assay IC50 Range.

T1 sequence (Q9NZQ7 with tags, fused parts or gaps): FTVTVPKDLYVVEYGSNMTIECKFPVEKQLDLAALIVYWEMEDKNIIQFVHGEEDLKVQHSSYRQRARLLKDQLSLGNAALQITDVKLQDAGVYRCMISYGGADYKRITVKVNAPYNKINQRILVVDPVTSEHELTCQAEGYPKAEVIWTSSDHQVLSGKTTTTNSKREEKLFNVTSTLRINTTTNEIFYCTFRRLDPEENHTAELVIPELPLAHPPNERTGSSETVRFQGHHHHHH

For `CCCC[C@H]1C(=O)N(C)[C@@H](C)C(=O)N[C@@H](CCCNC(=N)N)C(=O)NC(C(=O)NCC(N)=O)CSCC(=O)N[C@@H](Cc2ccc(O)cc2)C(=O)N(C)[C@@H](C)C(=O)N[C@@H](CC(N)=O)C(=O)N2CCC[C@H]2C(=O)N[C@@H](CC(N)=O)C(=O)N[C@@H](CC(C)C)C(=O)N2C[C@H](O)C[C@H]2C(=O)N[C@@H](Cc2c[nH]c3ccccc23)C(=O)N[C@@H](CO)C(=O)N[C@@H](Cc2csc3ccccc23)C(=O)N1C` (stereo partly drawn) [Example 9139] ({CH2CO}-Y[NMeA]NPNL[Hyp]WS[Bta][NMeNle][NMeA]R[ξC]G-NH2; thioether N-14), the pIC50 under setting [1] is 8.00 to 9.00. For the compound `CCCC[C@H]1C(=O)N(C)[C@@H](CCCC)C(=O)N[C@@H](CO)C(=O)NC(C(=O)NCC(N)=O)CSCC(=O)N[C@@H](Cc2ccc(O)cc2)C(=O)N(C)[C@@H](C)C(=O)N[C@@H](CC(N)=O)C(=O)N2CCC[C@H]2C(=O)N[C@@H](CC(N)=O)C(=O)N[C@@H](CC(C)C)C(=O)N2CCC[C@H]2C(=O)N[C@@H](Cc2c[nH]c3ccccc23)C(=O)N[C@@H](CO)C(=O)N[C@@H](Cc2c[nH]c3ccccc23)C(=O)N1C` (stereo partly drawn) [Example 9140] ({CH2CO}-Y[NMeA]NPNLPWSW[NMeNle][NMeNle]S[ξC]G-NH2; thioether N-14), the pIC50 under setting [1] was 8.00 to 9.00. `CCCC[C@H]1C(=O)N(C)[C@@H](CCCC)C(=O)C[C@@H](CO)C(=O)NC(C(=O)NCC(N)=O)CSCC(=O)N[C@@H](Cc2ccc(O)cc2)C(=O)N(C)[C@@H](C)C(=O)N[C@@H](CC(N)=O)C(=O)N2CCC[C@H]2C(=O)N[C@@H](CC(N)=O)C(=O)N[C@@H](CC(C)C)C(=O)N2CCC[C@H]2C(=O)N[C@@H](Cc2c[nH]c3ccccc23)C(=O)N[C@@H](CO)C(=O)N[C@@H](Cc2csc3ccccc23)C(=O)N1C` (stereo partly drawn) [Example 9141] ({CH2CO}-Y[NMeA]NPNLPWS[Bta][NMeNle][X7][ξC]G-NH2; thioether N-13): the pIC50 under setting [1] was 7.00 to 8.00.

Consider `CCCC[C@H]1C(=O)N(C)[C@@H](CCCC)C(=O)N[C@@H](CO)C(=O)NC(C(=O)NCC(N)=O)CSCC(=O)N[C@@H](Cc2ccc(O)cc2)C(=O)N(C)[C@@H](C)C(=O)N[C@@H](CC(N)=O)C(=O)N2CCC[C@H]2C(=O)N[C@@H](CC(N)=O)C(=O)N[C@@H](CC(C)C)C(=O)N2C[C@H](O)C[C@H]2C(=O)N[C@@H](Cc2c[nH]c3ccccc23)C(=O)N[C@@H](CO)C(=O)N[C@@H](Cc2c[nH]c3ccccc23)C(=O)N1C` (stereo partly drawn) [Example 9142] ({CH2CO}-Y[NMeA]NPNL[Hyp]WSW[NMeNle][NMeNle]S[ξC]G-NH2; thioether N-14), for which the pIC50 under setting [1] is 8.00 to 9.00. On to `CCCC[C@H]1C(=O)N(C)[C@@H](CCCC)C(=O)N[C@@H](CO)C(=O)NC(C(=O)NCC(N)=O)CSCC(=O)N[C@@H](Cc2ccc(O)cc2)C(=O)N(C)[C@@H](C)C(=O)N[C@@H](CC(N)=O)C(=O)N2CCC[C@H]2C(=O)N[C@@H](CC(N)=O)C(=O)N[C@@H](CC(C)C)C(=O)N2C[C@H](O)C[C@H]2C(=O)N[C@@H](Cc2c[nH]c3ccccc23)C(=O)N[C@@H](CO)C(=O)N[C@@H](Cc2csc3ccccc23)C(=O)N1C` (stereo partly drawn) [Example 9143] ({CH2CO}-Y[NMeA]NPNL[Hyp]WS[Bta][NMeNle][NMeNle]S[ξC]G-NH2; thioether N-14), for which, under setting [1], the pIC50 was 7.00 to 8.00. With `CCCC[C@H]1C(=O)N(C)[C@@H](CCCC)C(=O)N[C@@H](CCCNC(=N)N)C(=O)NC(C(=O)NCC(N)=O)CSCC(=O)N[C@@H](Cc2ccc(O)cc2)C(=O)N(C)[C@@H](C)C(=O)N[C@@H](Cc2cnc[nH]2)C(=O)N2CCC[C@H]2C(=O)N[C@@H](CC(N)=O)C(=O)N[C@@H](CC(C)C)C(=O)N2CCC[C@H]2C(=O)N[C@@H](Cc2c[nH]c3ccccc23)C(=O)N[C@@H](CO)C(=O)N[C@@H](Cc2c[nH]c3ccccc23)C(=O)N1C` (stereo partly drawn) [Example 9144] ({CH2CO}-Y[NMeA]HPNLPWSW[NMeNle][NMeNle]R[ξC]G-NH2; thioether N-14), the pIC50 under setting [1] is 8.00 to 9.00.

Consider `CCCC[C@H]1C(=O)N(C)[C@@H](CCCC)C(=O)N[C@@H](CCCNC(=N)N)C(=O)NC(C(=O)NCC(N)=O)CSCC(=O)N[C@@H](Cc2ccc(O)cc2)C(=O)N(C)[C@@H](C)C(=O)N[C@@H](Cc2cnc[nH]2)C(=O)N2CCC[C@H]2C(=O)N[C@@H](CC(N)=O)C(=O)N[C@@H](CC(C)C)C(=O)N2CCC[C@H]2C(=O)N[C@@H](Cc2c[nH]c3ccccc23)C(=O)N[C@@H](CO)C(=O)N[C@@H](Cc2csc3ccccc23)C(=O)N1C` (stereo partly drawn) [Example 9145] ({CH2CO}-Y[NMeA]HPNLPWS[Bta][NMeNle][NMeNle]R[ξC]G-NH2; thioether N-14), for which the pIC50 under setting [1] is 8.00 to 9.00. With `CCCC[C@H]1C(=O)N(C)[C@@H](CCCC)C(=O)N[C@@H](CCCNC(=N)N)C(=O)NC(C(=O)NCC(N)=O)CSCC(=O)N[C@@H](Cc2ccc(O)cc2)C(=O)N(C)[C@@H](C)C(=O)N[C@@H](Cc2cnc[nH]2)C(=O)N2CCC[C@H]2C(=O)N[C@@H](CC(N)=O)C(=O)N[C@@H](CC(C)C)C(=O)N2C[C@H](O)C[C@H]2C(=O)N[C@@H](Cc2c[nH]c3ccccc23)C(=O)N[C@@H](CO)C(=O)N[C@@H](Cc2c[nH]c3ccccc23)C(=O)N1C` (stereo partly drawn) [Example 9146] ({CH2CO}-Y[NMeA]HPNL[Hyp]WSW[NMeNle][NMeNle]R[ξC]G-NH2; thioether N-14), the pIC50 under setting [1] was 8.00 to 9.00. As to `CCCC[C@H]1C(=O)N(C)[C@@H](CCCC)C(=O)N[C@@H](CCCNC(=N)N)C(=O)NC(C(=O)NCC(N)=O)CSCC(=O)N[C@@H](Cc2ccc(O)cc2)C(=O)N(C)[C@@H](C)C(=O)N[C@@H](Cc2cnc[nH]2)C(=O)N2CCC[C@H]2C(=O)N[C@@H](CC(N)=O)C(=O)N[C@@H](CC(C)C)C(=O)N2C[C@H](O)C[C@H]2C(=O)N[C@@H](Cc2c[nH]c3ccccc23)C(=O)N[C@@H](CO)C(=O)N[C@@H](Cc2csc3ccccc23)C(=O)N1C` (stereo partly drawn) [Example 9147] ({CH2CO}-Y[NMeA]HPNL[Hyp]WS[Bta][NMeNle][NMeNle]R[ξC]G-NH2; thioether N-14), under setting [1], the pIC50 is 8.00 to 9.00. On to `CCCC[C@H]1C(=O)N(C)[C@@H](CCCC)C(=O)N[C@@H](CCCNC(=N)N)C(=O)NC(C(=O)NCC(N)=O)CSCC(=O)N[C@@H](Cc2ccc(O)cc2)C(=O)N(C)[C@@H](C)C(=O)N[C@@H](CC(N)=O)C(=O)N2CCC[C@H]2C(=O)N[C@@H](CCO)C(=O)N[C@@H](CC(C)C)C(=O)N2CCC[C@H]2C(=O)N[C@@H](Cc2c[nH]c3ccccc23)C(=O)N[C@@H](CO)C(=O)N[C@@H](Cc2c[nH]c3ccccc23)C(=O)N1C` (stereo partly drawn) [Example 9148] ({CH2CO}-Y[NMeA]NP[hSer]LPWSW[NMeNle][NMeNle]R[ξC]G-NH2; thioether N-14), for which the pIC50 under setting [1] is 5.00 to 6.00. In the case of `CCCC[C@H]1C(=O)N(C)[C@@H](CCCC)C(=O)N[C@@H](CCCNC(=N)N)C(=O)NC(C(=O)NCC(N)=O)CSCC(=O)N[C@@H](Cc2ccc(O)cc2)C(=O)N(C)[C@@H](C)C(=O)N[C@@H](CC(N)=O)C(=O)N2CCC[C@H]2C(=O)N[C@@H](CCO)C(=O)N[C@@H](CC(C)C)C(=O)N2CCC[C@H]2C(=O)N[C@@H](Cc2c[nH]c3ccccc23)C(=O)N[C@@H](CO)C(=O)N[C@@H](Cc2csc3ccccc23)C(=O)N1C` (stereo partly drawn) [Example 9149] ({CH2CO}-Y[NMeA]NP[hSer]LPWS[Bta][NMeNle][NMeNle]R[ξC]G-NH2; thioether N-14), the pIC50 (read-out: HTRF Human PD-L1/PD-1 Binding Assay IC50) is 6.00. `CCCC[C@H]1C(=O)N(C)[C@@H](CCCC)C(=O)N[C@@H](CCCNC(=N)N)C(=O)NC(C(=O)NCC(N)=O)CSCC(=O)N[C@@H](Cc2ccc(O)cc2)C(=O)N(C)[C@@H](C)C(=O)N[C@@H](CC(N)=O)C(=O)N2CCC[C@H]2C(=O)N[C@@H](CCO)C(=O)N[C@@H](CC(C)C)C(=O)N2C[C@H](O)C[C@H]2C(=O)N[C@@H](Cc2c[nH]c3ccccc23)C(=O)N[C@@H](CO)C(=O)N[C@@H](Cc2csc3ccccc23)C(=O)N1C` (stereo partly drawn) [Example 9150] ({CH2CO}-Y[NMeA]NP[hSer]L[Hyp]WS[Bta][NMeNle][NMeNle]R[ξC]G-NH2; thioether N-14): the pIC50 under setting [1] was 8.00 to 9.00.

In the case of `CCCC[C@H]1C(=O)N(C)[C@@H](CCCC)C(=O)N[C@@H](CCCN)C(=O)NC(C(=O)NCC(N)=O)CSCC(=O)N[C@@H](Cc2ccc(O)cc2)C(=O)N(C)[C@@H](C)C(=O)N[C@@H](CC(N)=O)C(=O)N2CCC[C@H]2C(=O)N[C@@H](CC(N)=O)C(=O)N[C@@H](CC(C)C)C(=O)N2CCC[C@H]2C(=O)N[C@@H](Cc2c[nH]c3ccccc23)C(=O)N[C@@H](CO)C(=O)N[C@@H](Cc2c[nH]c3ccccc23)C(=O)N1C` (stereo partly drawn) [Example 9155] ({CH2CO}-Y[NMeA]NPNLPWSW[NMeNle][NMeNle][Orn][ξC]G-NH2; thioether N-14), the pIC50 under setting [1] was 8.00 to 9.00. As to `CCCC[C@H]1C(=O)N(C)[C@@H](CCCC)C(=O)N[C@@H](CCCN)C(=O)NC(C(=O)NCC(N)=O)CSCC(=O)N[C@@H](Cc2ccc(O)cc2)C(=O)N(C)[C@@H](C)C(=O)N[C@@H](CC(N)=O)C(=O)N2CCC[C@H]2C(=O)N[C@@H](CC(N)=O)C(=O)N[C@@H](CC(C)C)C(=O)N2CCC[C@H]2C(=O)N[C@@H](Cc2c[nH]c3ccccc23)C(=O)N[C@@H](CO)C(=O)N[C@@H](Cc2csc3ccccc23)C(=O)N1C` (stereo partly drawn) [Example 9156] ({CH2CO}-Y[NMeA]NPNLPWS[Bta][NMeNle][NMeNle][Orn][ξC]G-NH2; thioether N-14), under setting [1], the pIC50 is 8.00 to 9.00. As for `CCCC[C@H]1C(=O)N(C)[C@@H](CCCC)C(=O)N[C@@H](CCCN)C(=O)NC(C(=O)NCC(N)=O)CSCC(=O)N[C@@H](Cc2ccc(O)cc2)C(=O)N(C)[C@@H](C)C(=O)N[C@@H](CC(N)=O)C(=O)N2CCC[C@H]2C(=O)N[C@@H](CC(N)=O)C(=O)N[C@@H](CC(C)C)C(=O)N2C[C@H](O)C[C@H]2C(=O)N[C@@H](Cc2c[nH]c3ccccc23)C(=O)N[C@@H](CO)C(=O)N[C@@H](Cc2c[nH]c3ccccc23)C(=O)N1C` (stereo partly drawn) [Example 9157] ({CH2CO}-Y[NMeA]NPNL[Hyp]WSW[NMeNle][NMeNle][Orn][ξC]G-NH2; thioether N-14), the pIC50 under setting [1] was 8.00 to 9.00.
